From US20080269251A1, “Substituted Pyrazinone Derivatives as Alpha2C-Adrenoreceptor Antagonists” (priority 2005, published 2008) come the findings set out here.

Data set [1] has as its target T1, human adrenergic-α2C receptor (Homo sapiens, UniProt P18825).
T1 construct: expressed in transfected cells; host or cells: CHO cells, stably transfected; membrane preparation
T1 sequence (P18825 1-462): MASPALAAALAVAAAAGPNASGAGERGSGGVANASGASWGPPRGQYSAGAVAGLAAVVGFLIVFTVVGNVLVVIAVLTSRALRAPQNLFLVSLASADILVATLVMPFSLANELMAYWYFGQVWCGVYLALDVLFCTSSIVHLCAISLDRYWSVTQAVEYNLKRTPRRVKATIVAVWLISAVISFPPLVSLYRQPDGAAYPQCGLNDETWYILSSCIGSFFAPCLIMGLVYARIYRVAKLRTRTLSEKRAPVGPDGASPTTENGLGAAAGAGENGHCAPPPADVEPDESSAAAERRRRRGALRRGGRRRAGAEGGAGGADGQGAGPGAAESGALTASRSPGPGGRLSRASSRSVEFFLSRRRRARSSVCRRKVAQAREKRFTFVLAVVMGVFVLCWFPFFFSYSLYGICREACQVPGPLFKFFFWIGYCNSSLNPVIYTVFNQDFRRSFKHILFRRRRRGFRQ
Put plainly: Radioligand binding experiment for hα2C-adrenoceptor ([3H]raulwolscine). The note with it: [3H]raulwolscine 1 nM, 60 minutes at 25° C.; for IC50: read-out: h-α2C pIC50 (converted). The procedure, abridged: (§1)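 CHO membranes expressing human α2A or α2C receptors were incubated with 1 nM [^3H]raulwolscine for 60 min at 25° C in glycylglycine 25 mM, pH 8.0, then filtered. Nonspecific binding was defined with 1 μM oxymetazoline for α2A and 1 μM spiroxatrine for α2C. pIC50 came from sigmoidal competition curves.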

Data set [2] has as its target T2, human adrenergic-α2A receptor (Homo sapiens, UniProt P08913).
T2 construct: expressed in transfected cells; host or cells: CHO cells, stably transfected; membrane preparation
T2 sequence (P08913 1-465): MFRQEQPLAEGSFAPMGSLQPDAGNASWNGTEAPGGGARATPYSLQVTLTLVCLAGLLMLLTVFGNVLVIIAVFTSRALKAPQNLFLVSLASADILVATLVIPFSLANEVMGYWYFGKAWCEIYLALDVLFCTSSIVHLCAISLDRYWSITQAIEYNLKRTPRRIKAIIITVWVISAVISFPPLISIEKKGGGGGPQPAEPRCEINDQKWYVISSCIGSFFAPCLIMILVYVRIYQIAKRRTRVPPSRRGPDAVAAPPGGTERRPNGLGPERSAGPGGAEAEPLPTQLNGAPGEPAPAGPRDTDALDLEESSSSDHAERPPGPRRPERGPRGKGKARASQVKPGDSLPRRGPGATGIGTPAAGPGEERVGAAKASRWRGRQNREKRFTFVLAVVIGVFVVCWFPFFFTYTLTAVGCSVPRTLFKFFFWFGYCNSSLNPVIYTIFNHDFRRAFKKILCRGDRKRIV
Put plainly: Radioligand binding experiment for hα2A-adrenergic receptor ([3H]raulwolscine). As to conditions: [3H]raulwolscine 1 nM, 60 minutes at 25° C.; for IC50: read-out: h-α2A pIC50 (converted). The method, boiled down: as §1

Another data set concerns the target T3, 5HT-transporter (Homo sapiens, UniProt P31645).
T3 construct: Human platelet membranes (Oceanix Biosciences Corporation, Hanover, Md., USA) were thawed; tissue Oceanix Biosciences Corporation, Hanover, Md., USA; host or cells: human platelet membranes
Put plainly: Binding experiment for the 5HT-transporter ([3H]paroxetine, human platelet membranes). The note with it: [3H]paroxetine 0.5 nM, 60 min at 25° C.; for IC50: read-out: h-5HTT pIC50 (converted). The method, boiled down:
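Competition binding of [3H]paroxetine to human platelet membranes in Tris-HCl 50 mM with 120 mM NaCl and 5 mM KCl; bound radioligand separated by GF/B filtration and counted.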

Molecules are shown by their SMILES. Some results are limits rather than exact numbers.

T3 sequence (P31645 whole entry): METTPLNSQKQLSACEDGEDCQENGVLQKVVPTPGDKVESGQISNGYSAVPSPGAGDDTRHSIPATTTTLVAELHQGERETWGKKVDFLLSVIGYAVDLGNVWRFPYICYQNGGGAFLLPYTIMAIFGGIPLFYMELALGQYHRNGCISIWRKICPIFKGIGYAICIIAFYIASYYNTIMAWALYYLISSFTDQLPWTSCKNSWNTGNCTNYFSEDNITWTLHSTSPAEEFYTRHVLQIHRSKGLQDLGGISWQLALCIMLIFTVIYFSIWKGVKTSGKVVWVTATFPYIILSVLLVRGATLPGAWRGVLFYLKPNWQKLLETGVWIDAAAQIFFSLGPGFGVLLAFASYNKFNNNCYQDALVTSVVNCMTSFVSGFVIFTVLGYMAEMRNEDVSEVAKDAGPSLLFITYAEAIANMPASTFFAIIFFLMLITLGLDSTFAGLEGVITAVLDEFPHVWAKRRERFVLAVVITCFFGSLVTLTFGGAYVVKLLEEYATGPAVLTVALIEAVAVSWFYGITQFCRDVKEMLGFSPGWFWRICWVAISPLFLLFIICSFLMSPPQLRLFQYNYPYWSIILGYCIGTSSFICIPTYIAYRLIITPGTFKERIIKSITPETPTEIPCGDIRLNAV

For orientation: melting point means the temperature of the solid-liquid transition. Molecule `CCCC(=O)NCc1ccc(-n2ccnc(NC3CCN(Cc4ccc5ccccc5c4)CC3)c2=O)cc1F` [1-26] yielded a melting point of 95 °C. Moreover, the IC50 in data set [1] was 0.00794 µM. Further, the IC50 in data set [2] is 0.398 µM. Further, at 5HT-transporter, the IC50 was 0.00794 µM.
Turning to `O=C(NCCN1CCOCC1)c1ccc(-n2ccnc(NC3CCN(Cc4ccc5ccccc5c4)CC3)c2=O)cc1` [1-91], the melting point came to 271 °C. Moreover, in data set [1], the IC50 was 0.0631 µM. The IC50 in data set [2] was 0.316 µM. Also, on 5HT-transporter, the IC50 was 0.0158 µM.
Consider `O=C(Cn1ccnc(NC2CCN(Cc3ccc4ccccc4c3)CC2)c1=O)N(Cc1ccccc1)c1ccccc1` [1-104], for which the IC50 was 0.02 µM in data set [1], 0.2 µM in data set [2] and 0.126 µM on 5HT-transporter.
In the case of `O=c1c(NC2CCN(Cc3ccc4ccccc4c3)CC2)nccn1CCCC(c1ccc(F)cc1)c1ccc(F)cc1` [5-07], the results for the IC50 (in data set [1]; in data set [2]; at 5HT-transporter) were 0.158 µM, 0.316 µM and 0.158 µM, respectively.
`O=C(CCN(c1nccn(CCC(=O)c2ccccc2)c1=O)C1CCN(Cc2ccc3ccccc3n2)CC1)c1ccccc1` [9-09]: the results for the IC50 (in data set [1]; in data set [2]; on 5HT-transporter) were 0.0501 µM, 0.316 µM and 0.126 µM, respectively.
Take `O=c1c(NC2CCN(Cc3ccc4ncccc4c3)CC2)nccn1CCCOCc1ccccc1` [9-06]: the IC50 in data set [1] is 0.316 µM; in data set [2], 1.26 µM; on 5HT-transporter, 0.0398 µM.
Take `COc1ccc(Cn2c(-c3cccc(CN4CCC(F)CC4)c3)c(Cl)nc(NC3CCN(Cc4ccc5ccccc5c4)CC3)c2=O)cc1` [8-12]: the IC50 is 0.0794 µM in data set [1], 0.1 µM in data set [2] and 0.126 µM on 5HT-transporter.
On to `O=c1c(NC2CCN(Cc3ccc4ccccc4c3)CC2)nccn1-c1ccc(CN2CCC(Oc3cccnc3)CC2)cc1` [2-17], for which the “h-α2C pIC50” value in data set [1] is recorded as 8.2. In addition, in data set [2], the “h-α2A pIC50” value is recorded as 6.6. In addition, on 5HT-transporter, the “h-5HTT pIC50” value is given as 8.6.
Turning to `COCCN(C)Cc1ccc(-n2ccnc(NC3CCN(Cc4ccc5ccccc5c4)CC3)c2=O)cc1` [1-21], the IC50 in data set [1] is 0.0158 µM; in data set [2], 0.251 µM; at 5HT-transporter, 0.0158 µM.
Turning to `O=C(NCCCn1ccnc(NC2CCN(Cc3ccc4ccccc4c3)CC2)c1=O)c1ccccc1` [1-74], the IC50 in data set [1] is 0.0316 µM; in data set [2] it was 0.794 µM; on 5HT-transporter, 0.126 µM.
Take `O=C(Cn1ccnc(NC2CCN(Cc3ccc4ccccc4c3)CC2)c1=O)NCc1ccco1` [1-81]: the figures for the IC50 (in data set [1]; in data set [2]; at 5HT-transporter) were 0.0316 µM, 0.158 µM and 0.631 µM, respectively.
On the same counts, the results for `O=c1c(NC2CCN(Cc3ccc4ccccc4c3)CC2)nccn1-c1ccc2[nH]ccc2c1` [6-02] are 0.0316 µM, 0.126 µM and 0.0251 µM.
On to `CCCC(=O)NCc1ccc(-n2ccnc(NC3CCN(Cc4ccc5ccccc5c4)CC3)c2=O)cc1` [1-24], for which the IC50 is 0.0251 µM in data set [1], 0.316 µM in data set [2] and 0.00631 µM at 5HT-transporter.
With `CN(C)C(=O)Cn1ccnc(N2CCN(Cc3cccc4ccccc34)CC2)c1=O` [9-24], the IC50 is 0.398 µM in data set [1], 5.01 µM in data set [2] and above 10 µM at 5HT-transporter.
As for `COC(=O)c1ccc(-c2c(Cl)nc(NC3CCN(Cc4ccc5ccccc5c4)CC3)c(=O)n2Cc2ccc(OC)cc2)cc1` [8-04], the IC50 in data set [1] is 1.26 µM; in data set [2], 1.26 µM; on 5HT-transporter, 0.794 µM.
Take `O=c1c(NC2CCN(Cc3ccc4ccccc4c3)CC2)nccn1-c1ccc(CN2CCC(O)CC2)cc1` [2-14]: the IC50 in data set [1] was 0.01 µM; in data set [2], 0.158 µM; on 5HT-transporter, 0.00501 µM.
For `CC(C)(C)OC(=O)NCc1ccc(Cn2ccnc(NC3CCN(Cc4ccc5ccccc5c4)CC3)c2=O)cc1` [1-34], the IC50 in data set [1] is 0.1 µM; in data set [2] it was 0.251 µM; on 5HT-transporter, 0.0794 µM.
In the same order, the values of `CN(C)C(=O)CCC(=O)NCc1ccc(-n2ccnc(NC3CCN(Cc4ccc5ccccc5c4)CC3)c2=O)cc1` [1-59] are 0.0398 µM, 0.316 µM and 0.0316 µM.
Regarding `COc1ccc(Cn2c(-c3cccc(CN4CCC(O)CC4)c3)c(Cl)nc(NC3CCN(Cc4ccc5ccccc5c4)CC3)c2=O)cc1` [8-10], the IC50 in data set [1] was 0.0794 µM; in data set [2], 0.158 µM; at 5HT-transporter it was 0.0316 µM.
As for `COc1ccc(Cn2c(-c3cccc(CN4CCCCC4)c3)c(Cl)nc(NC3CCN(Cc4ccc5ccccc5c4)CC3)c2=O)cc1` [8-09], the IC50 is 0.0501 µM in data set [1], 0.1 µM in data set [2] and 0.0501 µM on 5HT-transporter.
As to `O=Cc1ccc(-n2ccnc(NC3CCN(Cc4ccc5ccccc5c4)CC3)c2=O)cc1` [5-10], the IC50 in data set [1] is 0.0631 µM; in data set [2], 0.316 µM; at 5HT-transporter, 0.1 µM.
`O=C(NCc1ccc(-n2ccnc(NC3CCN(Cc4ccc5ccccc5c4)CC3)c2=O)cc1)c1ccc(F)cc1` [1-76]: the “h-α2C pIC50” value in data set [1] is listed as 8.1. Besides, in data set [2], the “h-α2A pIC50” value is 6.2. In addition, the “h-5HTT pIC50” value at 5HT-transporter is 8.2.
On the same counts, the results for `O=C(O)C(F)(F)F.O=C1c2ccccc2C(=O)N1CCCn1ccnc(NCCN2CCN(Cc3ccc4ccccc4c3)CC2)c1=O` [9-02] are 7.5, 6.6 and 7.3.
Take `CCCCN(Cc1ccccc1)C(=O)Cn1ccnc(NC2CCN(Cc3ccc4ccccc4c3)CC2)c1=O` [1-18]: the IC50 in data set [1] was 0.0398 µM; in data set [2] it was 0.2 µM; at 5HT-transporter, 0.0794 µM.
`O=C(NCCCn1ccnc(NC2CCN(Cc3ccc4ccccc4c3)CC2)c1=O)Nc1ccccc1` [1-53]: the IC50 is 0.02 µM in data set [1], 0.631 µM in data set [2] and 0.00794 µM at 5HT-transporter.
`CCOC(=O)CCCCn1ccnc(NC2CCN(Cc3cnc4ccccc4c3)CC2)c1=O` [9-21]: the IC50 in data set [1] is 0.2 µM; in data set [2], 1.26 µM; at 5HT-transporter, 2 µM.
As for `O=c1c(NC2CCN(Cc3ccc4ccccc4c3)CC2)nccn1Cc1cc2ccccc2cn1` [6-10], the IC50 is 0.0631 µM in data set [1], 0.251 µM in data set [2] and 0.126 µM at 5HT-transporter.
`Cc1ccc(CNCc2ccc(-n3ccnc(NC4CCN(Cc5ccc6ccccc6c5)CC4)c3=O)cc2)o1.Cl.Cl` [1-83]: the “h-α2C pIC50” value in data set [1] is recorded as 7.6. In addition, in data set [2], the “h-α2A pIC50” value is recorded as 6.7. Also, the “h-5HTT pIC50” value at 5HT-transporter is 8.3.
Take `O=C(NCCCc1ccccc1)NCc1ccc(-n2ccnc(NC3CCN(Cc4ccc5ccccc5c4)CC3)c2=O)cc1` [1-51]: in data set [1], the “h-α2C pIC50” value came out at 7.1. Further, in data set [2], the “h-α2A pIC50” value is given as 6.4. In addition, the “h-5HTT pIC50” value at 5HT-transporter is recorded as 7.8.
As to `O=c1c(NC2CCN(Cc3ccc4ncccc4c3)CC2)nccn1CCCOc1ccccc1` [9-12], the IC50 in data set [1] is 0.0631 µM; in data set [2] it was 0.501 µM; on 5HT-transporter, 0.794 µM.
As for `C=CCCC(=O)NCc1ccc(-n2ccnc(NC3CCN(Cc4ccc5ccccc5c4)CC3)c2=O)cc1` [1-31], in data set [1], the “h-α2C pIC50” value came out at 7.5. For the same molecule, in data set [2], the “h-α2A pIC50” value came out at 6.5. Moreover, the “h-5HTT pIC50” value at 5HT-transporter came out at 8.1.
Regarding `O=C(CCN(c1nccn(CCC(=O)c2ccccc2)c1=O)C1CCN(Cc2ccc3ccccc3c2)CC1)c1ccccc1` [9-03], the IC50 in data set [1] was 0.0398 µM; in data set [2] it was 0.251 µM; on 5HT-transporter, 0.0398 µM.
On to `CCOC(CCn1ccnc(NC2CCN(Cc3ccc4ccccc4c3)CC2)c1=O)OCC` [4-02], for which the IC50 in data set [1] is 0.0794 µM; in data set [2], 0.794 µM; at 5HT-transporter, 0.251 µM.
For the molecule `COc1ccc(Cn2c(-c3cccc(CN4CCN(C)CC4)c3)c(Cl)nc(NC3CCN(Cc4ccc5ccccc5c4)CC3)c2=O)cc1` [8-14], the values for the IC50 (in data set [1]; in data set [2]; at 5HT-transporter) were 0.126 µM, 0.501 µM and 0.0501 µM, respectively.
In the same order, the values of `O=c1c(NC2CCN(Cc3ccc4ccccc4c3)CC2)nccn1-c1nccs1` [6-01] are 0.0631 µM, 0.251 µM and 0.02 µM.
